We go through 44 compounds from BindingDB's records for patent US9695131 (Bayer Pharma Aktiengesellschaft, 2017).

Values joined by “and” are separate entries in the source; they are usually repeats but may differ in a detail not shown here. Equal values may be shown once.

This test has as its target T1, chymase (Golden hamster, UniProt A0A1U7QTH6).
T1 sequence (A0A1U7QTH6 whole entry): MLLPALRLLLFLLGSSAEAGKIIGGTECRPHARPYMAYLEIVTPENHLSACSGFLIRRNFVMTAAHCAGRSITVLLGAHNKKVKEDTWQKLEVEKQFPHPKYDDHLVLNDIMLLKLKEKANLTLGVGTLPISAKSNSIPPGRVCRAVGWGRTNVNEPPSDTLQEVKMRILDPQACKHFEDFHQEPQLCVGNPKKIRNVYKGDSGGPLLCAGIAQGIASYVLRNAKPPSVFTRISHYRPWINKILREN
Nature of the test: Enzymatic Chymase Assay. Particulars: pH 7.5.
In general, IC50 refers to the concentration that gives 50% inhibition. Low values mean greater potency in that assay, high ones weaker potency in that assay. `Cn1c(=O)n(C)c2cc(-n3cc(C#N)c(=O)n(C4CCc5c(Cl)cccc54)c3=O)ccc21` (racemic) [US9695131, 7] showed an IC50 of 37 nM. Next, `Cn1c(=O)sc2cc(-n3cc(C#N)c(=O)n(C4CCc5c(Cl)cccc54)c3=O)ccc21` (racemic) [US9695131, 8]: 53 nM; `Cn1c(=O)sc2cc(-n3cc(-c4nnn[nH]4)c(=O)n(C4CCc5c(Cl)cccc54)c3=O)ccc21` (racemic) [US9695131, 23]: 7.3 nM; `Cn1c(=O)oc2cc(-n3cc(-c4nnn[nH]4)c(=O)n(C4CCCc5c(Cl)cccc54)c3=O)ccc21` (racemic) [US9695131, 30]: 13 nM. As for `Cc1c(Cn2c(=O)c(C(=O)NC(C)C(=O)O)cn(-c3ccc(N4CCNC4=O)cc3)c2=O)cccc1C(F)(F)F` (racemic) [US9695131, 45], the figure is 25 nM. As for `Cc1c(Cn2c(=O)c(C(=O)NC(C)C(=O)O)cn(-c3ccc4c(c3)C(C)(C)C(=O)N4C)c2=O)cccc1C(F)(F)F` (racemic) [US9695131, 47], the figure is 4.2 nM; as for `Cc1c(Cn2c(=O)c(C(=O)NC(C)C(=O)O)cn(-c3ccc4c(c3)ncn4C)c2=O)cccc1C(F)(F)F` (racemic) [US9695131, 57], 19 nM.

For `Cn1c(=O)oc2cc(-n3cc(C#N)c(=O)n([C@@H]4CCc5c4cccc5C(F)(F)F)c3=O)ccc21` [US9695131, 2], the IC50 turned out to be 18 nM. As for `Cn1c(=O)sc2cc(-n3cc(C#N)c(=O)n([C@@H]4CCc5c4cccc5C(F)(F)F)c3=O)ccc21` [US9695131, 3], the figure is 8.7 nM; as for `Cc1c(Cn2c(=O)c(C#N)cn(-c3ccc(N4CCNC4=O)cc3)c2=O)cccc1C(F)(F)F` [US9695131, 4], 48 nM.

In turn, `Cc1c(Cn2c(=O)c(C#N)cn(-c3ccc(N4CCOC4=O)cc3)c2=O)cccc1C(F)(F)F` [US9695131, 5] gave an IC50 of 29 nM. As for `Cc1c(Cn2c(=O)c(C#N)cn(-c3ccc4c(c3)n(C)c(=O)n4C)c2=O)cccc1C(F)(F)F` [US9695131, 6], the figure is 6.6 nM; as for `COc1ccc(-n2cc(C#N)c(=O)n(Cc3cccc(C(F)(F)F)c3C)c2=O)cc1OC` [US9695131, 9], 35 nM. As for `Cc1c(C#N)c(=O)n([C@@H]2CCc3c2cccc3C(F)(F)F)c(=O)n1-c1ccc2c(c1)oc(=O)n2C` [US9695131, 12], the figure is 7.6 nM; as for `Cn1c(=O)oc2cc(-n3cc(-c4nnn[nH]4)c(=O)n([C@@H]4CCc5c4cccc5C(F)(F)F)c3=O)ccc21` [US9695131, 14], 3.5 nM.

In the case of `Cn1c(=O)sc2cc(-n3cc(-c4nnn[nH]4)c(=O)n([C@@H]4CCc5c4cccc5C(F)(F)F)c3=O)ccc21` [US9695131, 15], the IC50 came to 2.8 nM. As for `Cn1c(=O)n(C)c2cc(-n3cc(-c4nnn[nH]4)c(=O)n(C4CCc5c(Cl)cccc54)c3=O)ccc21` (centres undefined) [US9695131, 18], the figure is 4.6 nM and 2.8 nM; as for `Cc1c(Cn2c(=O)c(-c3nnn[nH]3)cn(-c3ccc4c(c3)n(C)c(=O)n4C)c2=O)cccc1C(F)(F)F` [US9695131, 19], 5.8 nM; as for `COc1ccc(-n2cc(-c3nnn[nH]3)c(=O)n(Cc3cccc(C(F)(F)F)c3C)c2=O)cc1OC` [US9695131, 20], 22 nM.

The compound `Cc1c(Cn2c(=O)c(-c3nnn[nH]3)cn(-c3ccc(N4CCNC4=O)cc3)c2=O)cccc1C(F)(F)F` [US9695131, 21] showed an IC50 of 32 nM.

`Cc1c(Cn2c(=O)c(-c3nnn[nH]3)cn(-c3ccc(N4CCOC4=O)cc3)c2=O)cccc1C(F)(F)F` [US9695131, 25] registered an IC50 of 30 nM. This IC50 and that of the compound before are within 1.5-fold of each other. As for `COc1ccc(-n2cc(-c3nnn[nH]3)c(=O)n(Cc3cccc(C(F)(F)F)c3Cl)c2=O)cc1` [US9695131, 26], the figure is 44 nM; as for `COc1ccc(-n2cc(-c3nnn[nH]3)c(=O)n(Cc3cccc(Cl)c3Cl)c2=O)cc1` [US9695131, 27], 130 nM. Next, `Cc1c(Cn2c(=O)c(-c3noc(=O)[nH]3)cn(-c3ccc4c(c3)n(C)c(=O)n4C)c2=O)cccc1C(F)(F)F` [US9695131, 33]: 4.9 nM; `Cc1c(Cn2c(=O)c(-c3noc(=O)[nH]3)cn(-c3ccc(N4CCNC4=O)cc3)c2=O)cccc1C(F)(F)F` [US9695131, 34]: 55 nM; `Cc1c(Cn2c(=O)c(-c3noc(=O)[nH]3)cn(-c3ccc(N4CCOC4=O)cc3)c2=O)cccc1C(F)(F)F` [US9695131, 35]: 36 nM.

Regarding `COc1ccc(-n2cc(-c3noc(=O)[nH]3)c(=O)n(Cc3cccc(C(F)(F)F)c3C)c2=O)cc1OC` [US9695131, 36], the IC50 came out at 19 nM.

The compound `COc1ccc(-n2cc(-c3noc(=O)[nH]3)c(=O)n(Cc3cccc(C(F)(F)F)c3C)c2=O)cc1` [US9695131, 37] showed an IC50 of 76 nM. As for `Cn1c(=O)oc2cc(-n3cc(-c4noc(=O)[nH]4)c(=O)n([C@@H]4CCc5c4cccc5C(F)(F)F)c3=O)ccc21` [US9695131, 38], the figure is 8.1 nM; as for `Cc1c(Cn2c(=O)c(-c3nsc(=O)[nH]3)cn(-c3ccc(N4CCOC4=O)cc3)c2=O)cccc1C(F)(F)F` [US9695131, 39], 16 nM; as for `COc1ccc(-n2cc(-c3nsc(=O)[nH]3)c(=O)n(Cc3cccc(C(F)(F)F)c3C)c2=O)cc1OC` [US9695131, 40], 12 nM. Next, `Cn1c(=O)oc2cc(-n3cc(C(N)=O)c(=O)n([C@@H]4CCc5c4cccc5C(F)(F)F)c3=O)ccc21` [US9695131, 41]: 12 nM. As for `Cn1c(=O)sc2cc(-n3cc(C(N)=O)c(=O)n([C@@H]4CCc5c4cccc5C(F)(F)F)c3=O)ccc21` [US9695131, 42], the figure is 9.8 nM; as for `CCOC(=O)C(C)(C)NC(=O)c1cn(-c2ccc3c(c2)n(C)c(=O)n3C)c(=O)n(Cc2cccc(C(F)(F)F)c2C)c1=O` [US9695131, 48], 54 nM. For `Cc1c(Cn2c(=O)c(C(=O)NC(C)(C)C(=O)O)cn(-c3ccc4c(c3)n(C)c(=O)n4C)c2=O)cccc1C(F)(F)F` [US9695131, 49], the IC50 worked out at 3.6 nM. `CCOC(=O)C1(NC(=O)c2cn(-c3ccc4c(c3)n(C)c(=O)n4C)c(=O)n(Cc3cccc(C(F)(F)F)c3C)c2=O)CCC1` [US9695131, 50] returned an IC50 of 39 nM. Next, `Cc1c(Cn2c(=O)c(C(=O)NC3(C(=O)O)CCC3)cn(-c3ccc4c(c3)n(C)c(=O)n4C)c2=O)cccc1C(F)(F)F` [US9695131, 51]: 3 nM; `Cc1c(Cn2c(=O)c(C(N)=O)cn(-c3ccc(N4CCNC4=O)cc3)c2=O)cccc1C(F)(F)F` [US9695131, 52]: 94 nM; `COC(=O)CCNC(=O)c1cn(-c2ccc(N3CCNC3=O)cc2)c(=O)n(Cc2cccc(C(F)(F)F)c2C)c1=O` [US9695131, 53]: 180 nM. The compound `Cc1c(Cn2c(=O)c(C(=O)NCC#N)cn(-c3ccc(N4CCNC4=O)cc3)c2=O)cccc1C(F)(F)F` [US9695131, 55] showed an IC50 of 238 nM. This IC50 and that of the compound before are within 1.5-fold of each other. `COc1ccc(-n2cc(C(=O)NCCC(=O)O)c(=O)n(Cc3cccc(Cl)c3Cl)c2=O)cc1` [US9695131, 59] displayed an IC50 of 914 nM.

In the case of `COC(=O)C(COC(C)(C)C)NC(=O)c1cn(-c2ccc(N3CCNC3=O)cc2)c(=O)n(Cc2cccc(C(F)(F)F)c2C)c1=O` (centres undefined) [US9695131, 60], half-maximal inhibition (IC50) required 1590 nM. Compound `Cc1c(Cn2c(=O)c(C(=O)NC(CO)C(=O)O)cn(-c3ccc(N4CCNC4=O)cc3)c2=O)cccc1C(F)(F)F` (centres undefined) [US9695131, 61] came in with an IC50 of 17 nM. Next, `Cn1c(=O)oc2cc(-n3cc(C(=O)NC#N)c(=O)n([C@@H]4CCc5c4cccc5C(F)(F)F)c3=O)ccc21` [US9695131, 63]: 2.6 nM.
